Data from PubChem BioAssay (NCI).
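Each compound was tested at five concentrations against cells in 96-well plates for 48 hours. TGI: total growth inhibition.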

How the values were obtained:
Assay in all cases: growth of human tumour cells (NCI), 48 h
[1] = system: SF-295 CNS
[2] = system: SK-OV-3 ovarian
[3] = system: SNB-75 CNS
[4] = system: HCC-2998 colon
[5] = system: EKVX NSCLC
[6] = system: NCI-H226 lung
[7] = system: OVCAR-5 ovarian
[8] = system: CCRF-CEM leukemia
[9] = system: MDA-MB-435
[10] = system: OVCAR-8 ovarian
[11] = system: SK-MEL-5 melanoma
[12] = system: NCI-H460 lung
[13] = system: HCT-116 colon
[14] = system: 786-0 renal
[15] = system: RPMI-8226 leukemia
[16] = system: BT-549 breast
[17] = system: ACHN renal
[18] = system: U251 CNS
[19] = system: HOP-62 NSCLC
[20] = system: RXF 393 renal

Compound | TGI [1] [µM] | TGI [2] [µM] | TGI [3] [µM] | TGI [4] [µM] | TGI [5] [µM] | TGI [6] [µM] | TGI [7] [µM] | TGI [8] [µM] | TGI [9] [µM] | TGI [10] [µM] | TGI [11] [µM] | TGI [12] [µM] | TGI [13] [µM] | TGI [14] [µM] | TGI [15] [µM] | TGI [16] [µM] | TGI [17] [µM] | TGI [18] [µM] | TGI [19] [µM] | TGI [20] [µM]
COc1ccc(CNc2nc3cc(C(F)(F)F)ccc3nc2C(=O)O)cc1OC | > 100 | > 100 | > 100 | 95.8 | > 100 | > 100 | > 100 | 92.9 | 80.2 | > 100 | 43.7 | > 100 | 75.4 | > 100 | 94.6 | > 100 | > 100 | 73.5 | 66.1 | 
COC(=O)C[C@@H]1C(C)(C)[C@@H]2O[C@@]34C[C@@H]2C(=O)[C@]1(C)[C@H]3CC[C@@]1(C)[C@H](c2ccoc2)OC(=O)C[C@]14O | > 100 | > 100 | > 100 |  | > 100 | > 100 | > 100 | > 100 | > 100 | > 100 | > 100 | > 100 | > 100 | > 100 | > 100 | > 100 | > 100 | > 100 | > 100 | 
Cc1ccc2c(=O)cc(-c3cccc4ccccc34)[nH]c2n1 | > 100 | 2.64 |  | 0.177 | > 100 | 35.2 | > 47.1 | > 100 |  | 0.305 | 0.0897 | > 100 | > 34.8 | > 79.2 |  | > 94.6 | > 100 | 1.64 | > 100 | > 100
COc1cccc2c(NNc3ccccc3)c3ccc([N+](=O)[O-])cc3nc12 | > 100 | > 100 |  | > 100 | > 100 | > 100 | > 100 | > 100 | > 100 | > 100 | > 100 | > 100 | > 100 | 73.3 | > 100 | 71.4 | > 100 | > 100 | > 100 | > 100
CC(C)(C)[Si](C)(C)OCCCCC1CC2(S(=O)(=O)C3=CC=C=C=C3)ON1CC2S(=O)(=O)c1ccccc1 (centres undefined) |  | > 100 | > 100 | > 100 | > 100 | > 100 | > 100 |  | > 100 | > 100 | > 100 | > 100 | > 100 | > 100 | > 100 | > 100 | > 100 | > 100 | > 100 | > 100
COc1ccc(C(=O)N2CCc3c([nH]c4ccccc34)C2C(=O)O)o1 (centres undefined) | > 10 | > 10 | > 10 | > 10 | > 10 |  |  | > 10 | > 10 | > 10 | > 10 |  | > 10 | > 10 | > 10 | > 10 | > 10 | > 10 | > 10 | 
C=CC1ON(C)CCc2cc(OC)c(OC)cc21 (centres undefined) | > 100 |  | > 100 | > 100 | > 100 | > 100 | > 100 | > 100 | > 100 | > 100 | > 100 | > 100 | > 100 | > 100 | > 100 | > 100 | > 100 | > 100 | > 100 | 
COC(=O)CCC(NC(=O)C(C)NC(=O)COC1C(O)C(OC(=O)CCNc2c3ccccc3nc3cccc([N+](=O)[O-])c23)OC(OCc2ccccc2)C1NC(C)=O)C(N)=O (centres undefined) | > 10 | > 10 | > 10 | 5.8 | > 10 | > 10 | > 10 | > 10 | > 10 | > 10 | > 10 | > 10 | 9.11 | > 10 |  | > 10 | > 10 | > 10 | > 10 | 8.28
O=C(NC1CCC(=O)N1C(=O)OCc1ccccc1)OCc1ccccc1 (centres undefined) | > 100 | > 100 | > 100 | > 100 |  | > 100 | > 100 |  | > 100 | > 100 | > 100 | > 100 |  | > 100 | > 100 | > 100 | > 100 | > 100 | > 100 | > 100
Cc1ccc(S(=O)(=O)OC2=C/C(=N\c3onc(C)c3C)c3ccccc3C2=O)cc1 | > 100 | > 100 | > 100 |  | > 100 | > 100 | 42.1 |  | 31.8 | 36.8 | 38.7 | > 100 | 37.7 | > 100 | 53.8 | 71.9 | > 100 | 21.1 | 54.8 | 
CC(=O)Nc1ccc(C(=O)NN2C(=O)C(Cl)C2c2cc(Br)ccc2O)cc1 (centres undefined) | > 100 | > 100 | > 100 | > 100 | > 100 | 36.1 | > 100 | > 100 | > 100 | > 100 | > 100 | > 48.5 | > 100 | > 100 | > 100 | > 100 | > 100 | > 100 | > 100 | 
COc1[nH]c(C(Cl)(Cl)Cl)c(Cl)c(=O)c1Cl | > 100 | > 100 |  | > 100 | > 100 | > 100 | > 100 | > 100 | > 100 | > 100 | > 100 | > 100 | > 100 | > 100 | > 100 | > 100 | > 100 | > 100 | > 100 | 
Cc1cc2c(cc1Cl)SC(N/N=C(\N)c1ccc(Cl)cc1)=NS2(=O)=O | > 100 | > 100 | > 100 | > 100 | > 100 | > 100 | > 100 | > 100 | > 100 | > 100 | > 100 | > 100 | > 100 | > 100 |  | > 100 | > 100 | > 100 | > 100 | > 100
CCc1ccc(Nc2cc(=O)[nH]c(SCc3ccccc3)n2)cc1 | > 100 | > 100 | > 100 |  | > 100 | > 100 | > 100 | > 100 | > 100 | > 100 | > 100 |  | > 100 | > 100 | > 100 | > 100 | > 100 |  | > 100 | > 100
Oc1c2cc(Br)cc1CCc1cc(Br)cc(c1O)CC2 | 52.5 | 76 | 88.3 | 32.9 |  | 59.5 | 65 | 97.5 | > 100 | > 100 | 33.3 | 39.4 | 30.1 | > 100 | > 100 | 73.1 | > 100 | 65.8 | 65.7 | 70.4
OCC1OC(Oc2cc(O)cc(/C=C\c3ccc(O)cc3)c2)C(O)C(O)C1O (centres undefined) | > 100 | > 100 | > 100 |  | > 100 | > 100 | > 100 | > 100 | > 100 | > 100 | > 100 | > 100 | > 100 | > 100 | > 100 | > 100 | > 100 | > 100 | > 100 | > 100
OCC1NCC(O)C(O)C1O (centres undefined) |  | > 100 | > 100 | > 100 | > 100 |  | > 100 | > 100 | > 100 | > 100 | > 100 | > 100 | > 100 | > 100 | > 100 | > 100 | > 100 | > 100 | > 100 | > 100
COC1O[C@@H]2CCN3C(=O)[C@@H](OC(=O)c4ccc([N+](=O)[O-])cc4)[C@H]1C23 (some centres undefined) | > 100 | > 100 | > 100 | > 100 | > 100 | > 100 | > 100 | > 100 | > 100 | > 100 | > 100 | > 100 | > 100 | > 100 | > 100 |  | > 100 | > 100 | > 100 | > 100
CC1(C)C(O)C[C@]23CCC[C@](C)(C[C@@H](O)C12)C3 (some centres undefined) | > 100 | > 100 | > 100 |  | > 100 | > 100 | > 100 | > 100 | > 100 | > 100 | > 100 | > 100 |  | > 100 | > 100 | > 100 | > 100 | > 100 | > 100 | 
N#CC1=C(S)N(C2OC(CO)C(O)C(O)C2O)C(c2ccccc2)=CC1c1ccccc1 (centres undefined) | > 100 |  | > 100 | 96.4 |  | > 100 | > 100 | > 100 | > 100 | > 100 | 43.6 | > 100 | > 100 | > 100 | > 100 | > 100 | > 100 | > 100 | > 100 | 92.7
OC(c1cccnc1)C(F)(F)c1nc2ccccc2o1 (centres undefined) |  |  | > 100 | > 100 | > 100 | > 100 |  | > 100 | > 100 | > 100 | > 100 | > 100 | > 100 | > 100 | > 100 | > 100 | > 100 | > 100 | > 100 | > 100
CC(=O)OCC1OC(n2c(C)c(N=Nc3ccccc3)c(C)c(C#N)c2=S)C(OC(C)=O)C(OC(C)=O)C1OC(C)=O (centres undefined) | 44.1 | > 100 | 7.03 | > 100 |  |  | > 100 | > 100 | > 100 |  | > 100 | > 100 | 60 | 22.7 | > 100 | > 100 | > 100 |  | 34.5 | 32.4
CCCCCCCCCCCCn1c(=O)cc(NCCCC)c2cc3c(NCCCC)cc(=O)n(CCCCCCCCCCCC)c3nc21 | > 100 | > 100 | > 100 | > 100 |  | > 100 |  |  | > 100 |  | > 100 | > 100 | > 100 | > 100 | > 100 | > 100 | > 100 | > 100 | > 100 | 
CC1=NN(C(=O)CC(=O)Nc2ccccc2Cl)C(=O)C1N=Nc1ccc(C(=O)O)cc1 (centres undefined) | > 100 |  |  | > 100 | > 100 |  | > 100 | > 100 | > 100 | > 100 | > 100 | > 100 | > 100 | > 100 | > 100 | > 100 | > 100 | > 100 | > 100 | > 100
O=C(Cn1cc(-c2ccccc2)nn1)NC1CCCC1 | > 100 |  | > 100 | > 100 | > 100 | > 100 | > 100 | > 100 | > 100 | > 100 | > 100 | > 100 | > 100 | > 100 | > 100 | > 100 | > 100 | > 100 | > 100 | 
